{"source": "the supplement of paper PMC10307832", "experiment_in_all_cases": "relative viability (nuclei count vs DMSO), 5 days (fraction); higher = more cells survive", "key": {"A-427": {"system": "A-427", "in_short": "(§1)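 Dosing by pin tool came one day after lung cancer cell lines were seeded in 1536-well plates, using either one drug or a fixed anchor-drug dose plus five library-drug doses (not always all listed) in √10 steps. After 5 days, nuclei were counted on 4× images. Relative viability is treated-well nuclei count divided by vehicle-well nuclei count, and values are medians of duplicate plates.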"}, "NCI-H1651": {"system": "NCI-H1651", "in_short": "as §1"}, "LK-2": {"system": "LK-2", "in_short": "as §1"}, "NCI-H1648": {"system": "NCI-H1648", "in_short": "as §1"}, "NCI-H1755": {"system": "NCI-H1755", "in_short": "as §1"}, "A549": {"system": "A549", "in_short": "as §1"}, "CAL-12T": {"system": "CAL-12T", "in_short": "as §1"}, "IA-LM": {"system": "IA-LM", "in_short": "as §1"}}}
{"smiles": "CN1CCN(CCOc2cc(OC3CCOCC3)c3c(Nc4c(Cl)ccc5c4OCO5)ncnc3c2)CC1", "note": "[Saracatinib] + Nc1ncn([C@H]2C[C@H](O)[C@@H](CO)O2)c(=O)n1 [Decitabine] (partner 2 µM)", "values": [{"measurement": "relative viability", "setting": "A-427; first compound 0.02 µM", "result": 0.533}, {"measurement": "relative viability", "setting": "A-427; first compound 0.2 µM", "result": 0.511}, {"measurement": "relative viability", "setting": "A-427; first compound 0.6325 µM", "result": 0.593}, {"measurement": "relative viability", "setting": "A-427; first compound 2 µM", "result": 0.526}, {"measurement": "relative viability", "setting": "NCI-H1651; first compound 0.02 µM", "result": 0.734}, {"measurement": "relative viability", "setting": "NCI-H1651; first compound 0.2 µM", "result": 0.375}, {"measurement": "relative viability", "setting": "NCI-H1651; first compound 0.6325 µM", "result": 0.667}, {"measurement": "relative viability", "setting": "NCI-H1651; first compound 2 µM", "result": 0.626}, {"measurement": "relative viability", "setting": "LK-2; first compound 0.02 µM", "result": 0.337}, {"measurement": "relative viability", "setting": "LK-2; first compound 0.2 µM", "result": 0.23}, {"measurement": "relative viability", "setting": "LK-2; first compound 0.6325 µM", "result": 0.172}, {"measurement": "relative viability", "setting": "LK-2; first compound 2 µM", "result": 0.201}, {"measurement": "relative viability", "setting": "NCI-H1648; first compound 0.02 µM", "result": 0.534}, {"measurement": "relative viability", "setting": "NCI-H1648; first compound 0.2 µM", "result": 0.367}, {"measurement": "relative viability", "setting": "NCI-H1648; first compound 0.6325 µM", "result": 0.647}, {"measurement": "relative viability", "setting": "NCI-H1648; first compound 2 µM", "result": 0.391}, {"measurement": "relative viability", "setting": "NCI-H1755; first compound 0.02 µM", "result": 0.711}, {"measurement": "relative viability", "setting": "NCI-H1755; first compound 0.2 µM", "result": 0.604}, {"measurement": "relative viability", "setting": "NCI-H1755; first compound 0.6325 µM", "result": 0.72}, {"measurement": "relative viability", "setting": "NCI-H1755; first compound 2 µM", "result": 0.691}, {"measurement": "relative viability", "setting": "A549; first compound 0.02 µM", "result": 0.266}, {"measurement": "relative viability", "setting": "A549; first compound 0.6325 µM", "result": 0.279}, {"measurement": "relative viability", "setting": "A549; first compound 2 µM", "result": 0.237}]}
{"smiles": "Cc1csc(=NC2CCCCC2)n1/N=C/c1ccc(O)c(O)c1O", "note": "[MIM1] + O=C(CCCCCCC(=O)Nc1ccccc1)NO [Vorinostat] (partner 1 µM)", "values": [{"measurement": "relative viability", "setting": "A-427; first compound 0.2 µM", "result": 0.858}, {"measurement": "relative viability", "setting": "A-427; first compound 0.6325 µM", "result": 0.663}, {"measurement": "relative viability", "setting": "A-427; first compound 2 µM", "result": 0.849}, {"measurement": "relative viability", "setting": "A-427; first compound 6.325 µM", "result": 0.745}, {"measurement": "relative viability", "setting": "A-427; first compound 20 µM", "result": 0.312}, {"measurement": "relative viability", "setting": "NCI-H1651; first compound 0.2 µM", "result": 0.509}, {"measurement": "relative viability", "setting": "NCI-H1651; first compound 0.6325 µM", "result": 0.408}, {"measurement": "relative viability", "setting": "NCI-H1651; first compound 2 µM", "result": 0.519}, {"measurement": "relative viability", "setting": "NCI-H1651; first compound 6.325 µM", "result": 0.395}, {"measurement": "relative viability", "setting": "NCI-H1651; first compound 20 µM", "result": 0.51}, {"measurement": "relative viability", "setting": "CAL-12T; first compound 0.2 µM", "result": 0.765}, {"measurement": "relative viability", "setting": "CAL-12T; first compound 0.6325 µM", "result": 0.752}, {"measurement": "relative viability", "setting": "CAL-12T; first compound 2 µM", "result": 0.801}, {"measurement": "relative viability", "setting": "CAL-12T; first compound 6.325 µM", "result": 0.588}, {"measurement": "relative viability", "setting": "CAL-12T; first compound 20 µM", "result": 0.595}, {"measurement": "relative viability", "setting": "LK-2; first compound 0.2 µM", "result": 0.363}, {"measurement": "relative viability", "setting": "LK-2; first compound 0.6325 µM", "result": 0.272}, {"measurement": "relative viability", "setting": "LK-2; first compound 2 µM", "result": 0.304}, {"measurement": "relative viability", "setting": "LK-2; first compound 6.325 µM", "result": 0.562}, {"measurement": "relative viability", "setting": "LK-2; first compound 20 µM", "result": 0.203}, {"measurement": "relative viability", "setting": "NCI-H1648; first compound 0.2 µM", "result": 0.431}, {"measurement": "relative viability", "setting": "NCI-H1648; first compound 0.6325 µM", "result": 0.396}, {"measurement": "relative viability", "setting": "NCI-H1648; first compound 2 µM", "result": 0.337}, {"measurement": "relative viability", "setting": "NCI-H1648; first compound 6.325 µM", "result": 0.404}, {"measurement": "relative viability", "setting": "NCI-H1648; first compound 20 µM", "result": 0.206}, {"measurement": "relative viability", "setting": "NCI-H1755; first compound 0.2 µM", "result": 0.708}, {"measurement": "relative viability", "setting": "NCI-H1755; first compound 0.6325 µM", "result": 0.65}, {"measurement": "relative viability", "setting": "NCI-H1755; first compound 2 µM", "result": 0.792}, {"measurement": "relative viability", "setting": "NCI-H1755; first compound 6.325 µM", "result": 0.671}, {"measurement": "relative viability", "setting": "NCI-H1755; first compound 20 µM", "result": 0.296}, {"measurement": "relative viability", "setting": "IA-LM; first compound 0.2 µM", "result": 0.883}, {"measurement": "relative viability", "setting": "IA-LM; first compound 0.6325 µM", "result": 0.935}, {"measurement": "relative viability", "setting": "IA-LM; first compound 2 µM", "result": 0.93}, {"measurement": "relative viability", "setting": "IA-LM; first compound 6.325 µM", "result": 0.57}, {"measurement": "relative viability", "setting": "IA-LM; first compound 20 µM", "result": 0.159}]}
{"smiles": "CCNC(=O)c1noc(-c2cc(C(C)C)c(O)cc2O)c1-c1ccc(CN2CCOCC2)cc1", "note": "[Luminespib] + O=C(CCCCCCC(=O)Nc1ccccc1)NO [Vorinostat] (partner 1 µM)", "values": [{"measurement": "relative viability", "setting": "A-427; first compound 0.002 µM", "result": 0.855}, {"measurement": "relative viability", "setting": "A-427; first compound 0.006325 µM", "result": 0.319}, {"measurement": "relative viability", "setting": "A-427; first compound 0.02 µM", "result": 0.807}, {"measurement": "relative viability", "setting": "A-427; first compound 0.06325 µM", "result": 0.327}, {"measurement": "relative viability", "setting": "A-427; first compound 0.2 µM", "result": 0.247}, {"measurement": "relative viability", "setting": "NCI-H1651; first compound 0.002 µM", "result": 0.516}, {"measurement": "relative viability", "setting": "NCI-H1651; first compound 0.006325 µM", "result": 0.481}, {"measurement": "relative viability", "setting": "NCI-H1651; first compound 0.02 µM", "result": 0.371}, {"measurement": "relative viability", "setting": "NCI-H1651; first compound 0.06325 µM", "result": 0.542}, {"measurement": "relative viability", "setting": "NCI-H1651; first compound 0.2 µM", "result": 0.505}, {"measurement": "relative viability", "setting": "CAL-12T; first compound 0.002 µM", "result": 0.725}, {"measurement": "relative viability", "setting": "CAL-12T; first compound 0.006325 µM", "result": 0.802}, {"measurement": "relative viability", "setting": "CAL-12T; first compound 0.02 µM", "result": 0.29}, {"measurement": "relative viability", "setting": "CAL-12T; first compound 0.06325 µM", "result": 0.101}, {"measurement": "relative viability", "setting": "CAL-12T; first compound 0.2 µM", "result": 0.118}, {"measurement": "relative viability", "setting": "LK-2; first compound 0.002 µM", "result": 0.305}, {"measurement": "relative viability", "setting": "LK-2; first compound 0.006325 µM", "result": 0.374}, {"measurement": "relative viability", "setting": "LK-2; first compound 0.02 µM", "result": 0.201}, {"measurement": "relative viability", "setting": "LK-2; first compound 0.06325 µM", "result": 0.146}, {"measurement": "relative viability", "setting": "LK-2; first compound 0.2 µM", "result": 0.163}, {"measurement": "relative viability", "setting": "NCI-H1648; first compound 0.002 µM", "result": 0.299}, {"measurement": "relative viability", "setting": "NCI-H1648; first compound 0.006325 µM", "result": 0.502}, {"measurement": "relative viability", "setting": "NCI-H1648; first compound 0.02 µM", "result": 0.344}, {"measurement": "relative viability", "setting": "NCI-H1648; first compound 0.06325 µM", "result": 0.566}, {"measurement": "relative viability", "setting": "NCI-H1648; first compound 0.2 µM", "result": 0.348}, {"measurement": "relative viability", "setting": "NCI-H1755; first compound 0.002 µM", "result": 0.751}, {"measurement": "relative viability", "setting": "NCI-H1755; first compound 0.006325 µM", "result": 0.774}, {"measurement": "relative viability", "setting": "NCI-H1755; first compound 0.02 µM", "result": 0.835}, {"measurement": "relative viability", "setting": "NCI-H1755; first compound 0.06325 µM", "result": 0.57}, {"measurement": "relative viability", "setting": "NCI-H1755; first compound 0.2 µM", "result": 0.319}, {"measurement": "relative viability", "setting": "IA-LM; first compound 0.002 µM", "result": 0.918}, {"measurement": "relative viability", "setting": "IA-LM; first compound 0.006325 µM", "result": 0.934}, {"measurement": "relative viability", "setting": "IA-LM; first compound 0.02 µM", "result": 0.64}, {"measurement": "relative viability", "setting": "IA-LM; first compound 0.06325 µM", "result": 0.077}, {"measurement": "relative viability", "setting": "IA-LM; first compound 0.2 µM", "result": 0.0416}]}
